Measurements taken from paper PMC11091967, “Silicon-Rhodamine Functionalized Evocalcet Probes Potently and Selectively Label Calcium Sensing Receptors In Vitro, In Vivo, and Ex Vivo” (ACS Pharmacology & Translational Science, 2024).
Values joined by “and” are separate entries in the source; they are usually repeats but may differ in a detail not shown here. Identical values can stand only once. “Also recorded” adds a separate entry of the source. Like-named read-outs stand apart in the source and are kept apart here.

Legend:
[1] = system: HCAR cells; assay: Calcein AM viability assay, HCAR cells, 72 h; format: cell-based, hamster; conditions: for IC50: Cricetulus griseus
Protocol: (§1) The effects of EvoSiR probes and evocalcet on the viability of CCL39 and HCAR cells were evaluated using the Calcein AM assay as described by the manufacturer’s protocol (AAT Bioquest, 22002) with a working concentration of 10 μM. For the assay, cells were incubated in various concentrations of the compounds for 72 h. For positive controls, cells were incubated in culture media containing maximum 10% DMSO in a two-step dilution series for 72 h. Upon incubation in the Calcein AM solution for 1 h at 37 °C, the fluorescence readouts were retrieved using the Tecan GENios pro microplate reader (λex = 485 nm, λem = 535 nm, gain = 25 AU)

[2] = molecular target: T1, bovine serum albumin (BSA) (Bos taurus, UniProt P02769); assay: Spectrofluorometric analysis of fluorogenicity upon BSA binding; format: physicochemical; conditions: for increase in absolute fluorescence upon addition of 1% BSA: 1% BSA compared to PBS
T1 construct: purchased Sigma A7906
Protocol: Spectrofluorometric measurements were carried out by using the Agilent Cary Eclipse instrument. The voltage of the photomultiplier tube (PMT) was set to 600 for EvoSiR4 and EvoSiR6, and for 500 for SiR (4). Fluorescence of the probes was measured at concentrations ranging from 30 to 3000 nM in PBS containing various amounts of bovine serum albumin (BSA) (Sigma, A7906). Quenching experiments for the calculation of BSA binding were performed by adding a 1:1 molar ratio of tannic acid dissolved in ddH2O (Sigma, 403040) to the solution prior to measuring fluorescence.

[3] = molecular target: T2, human CaSR (Homo sapiens, UniProt P41180); assay: CaSR binding affinity estimated from differential fluorescence between HCAR (CaSR+) and CCL39 (CaSR-) cells
T2 construct: host or cells: CCL39 hamster lung fibroblasts stably transfected (HCAR), Geneticin selection
T2 sequence (P41180 20-1078): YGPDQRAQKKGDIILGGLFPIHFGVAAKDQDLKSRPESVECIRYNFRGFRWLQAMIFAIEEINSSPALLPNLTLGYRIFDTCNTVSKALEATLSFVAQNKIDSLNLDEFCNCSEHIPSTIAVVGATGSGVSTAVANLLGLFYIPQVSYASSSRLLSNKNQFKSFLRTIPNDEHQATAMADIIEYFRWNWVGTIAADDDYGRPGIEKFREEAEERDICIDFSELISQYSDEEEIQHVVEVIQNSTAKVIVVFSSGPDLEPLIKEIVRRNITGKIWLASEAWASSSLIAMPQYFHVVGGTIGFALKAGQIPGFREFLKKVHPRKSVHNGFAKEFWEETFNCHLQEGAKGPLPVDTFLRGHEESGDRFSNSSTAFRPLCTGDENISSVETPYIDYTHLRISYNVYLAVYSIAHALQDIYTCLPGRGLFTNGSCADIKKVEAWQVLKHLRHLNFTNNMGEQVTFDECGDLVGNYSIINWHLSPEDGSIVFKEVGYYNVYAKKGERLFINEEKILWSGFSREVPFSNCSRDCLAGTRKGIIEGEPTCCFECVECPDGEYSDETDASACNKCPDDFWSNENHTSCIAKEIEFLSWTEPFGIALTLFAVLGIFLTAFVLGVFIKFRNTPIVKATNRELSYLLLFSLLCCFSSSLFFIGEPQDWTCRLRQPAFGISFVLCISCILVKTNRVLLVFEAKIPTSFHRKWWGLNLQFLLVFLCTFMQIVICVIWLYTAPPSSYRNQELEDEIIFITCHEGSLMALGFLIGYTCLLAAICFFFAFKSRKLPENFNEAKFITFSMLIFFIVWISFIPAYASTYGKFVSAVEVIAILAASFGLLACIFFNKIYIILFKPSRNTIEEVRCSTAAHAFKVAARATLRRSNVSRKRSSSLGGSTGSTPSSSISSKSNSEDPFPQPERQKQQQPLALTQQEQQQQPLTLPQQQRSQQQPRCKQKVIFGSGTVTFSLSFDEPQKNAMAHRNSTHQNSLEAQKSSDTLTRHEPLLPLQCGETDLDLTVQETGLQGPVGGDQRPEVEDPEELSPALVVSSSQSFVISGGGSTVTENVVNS
Protocol: (§2) Hamster lung fibroblasts (CCL39, CaSR−) expressing the recombinant human CaSR (HCAR, CaSR+) and nontransected controls were kindly provided by Novartis AG and were kept in standard culturing conditions (37 °C, 5% CO2) in 1/2 DMEM (Roth, 9005.1)—1/2 F-12 (Sigma, N4888–500 mL) media containing 10% FBS. Media for the HCAR cells contained 500 μg/mL Geneticin as a selection antibiotic (Thermo Fisher, 10131035). Upon reaching 90–95% confluence, cells were detached and seeded into 96-well plates (PerkinElmer, 6005182) at a concentration of 35,000 cells per well and were incubated for 24 h before the experiment. For the functional CaSR calcium assay, cells were first washed twice with HBSS medium (Sigma, H6648), and were incubated in HBSS containing 5 μM Fluo-8 AM and 0.1 mM CaCl2 for 30 min at 37 °C. Calcium transients were measured upon addition of 0.5 mM CaCl2 with the FLIPR Tetra high-throughput cellular screening systems using the 470–495 nm LED excitation and 515–575 nm bandpass emission filters. Probe solutions contained 0.5% DMSO and were added to the cells 10 min prior to the measurement. dF/F0 values were calculated as a change in the peak fluorescence value of the transient for the first 200 data points normalized to the background fluorescence of the well. […] Both cells were washed with HBSS medium twice and then incubated for 10 min at 37 °C in HBSS medium containing 0.1% BSA in the presence or absence of 10 μM evocalcet. Upon the removal of media, cells were incubated in various concentrations of EvoSiR4 and EvoSiR6 in HBSS containing 0.1% BSA for 30 min at 37 °C and were subsequently washed 3 times with 0.1% BSA and resuspended in DMSO before the fluorometric measurement. The fluorescence was measured using a Tecan GENios pro microplate reader with the following parameters: λex = 612 nm, λem = 670 nm, gain = 50 AU. Data for the EvoSiR probes and the evocalcet competition is reported as CaSR-specific fluorescence, which was calculated by dividing the absolute fluorescence of the HCAR cells with the absolute fluorescence of the CCL39 cells for each concentration.

[4] = system: CCL39 cells; assay: Calcein AM viability assay, CCL39 cells, 72 h; format: cell-based, hamster
Protocol: as §1

[5] = molecular target: T2, human CaSR; assay: FLIPR-based functional CaSR calcium assay in HCAR cells; format: cell-based; conditions: for fold improvement in potency toward CaSR compared to evocalcet / fold increase in potency toward CaSR compared to the evocalcet-linker conjugate: FLIPR assay
Protocol: as §2

[6] = EC50, positive allosteric modulation of CaSR activity, HCAR cells, response to addition of 0.5 mM CaCl2, no BSA

T1 sequence (P02769 25-607): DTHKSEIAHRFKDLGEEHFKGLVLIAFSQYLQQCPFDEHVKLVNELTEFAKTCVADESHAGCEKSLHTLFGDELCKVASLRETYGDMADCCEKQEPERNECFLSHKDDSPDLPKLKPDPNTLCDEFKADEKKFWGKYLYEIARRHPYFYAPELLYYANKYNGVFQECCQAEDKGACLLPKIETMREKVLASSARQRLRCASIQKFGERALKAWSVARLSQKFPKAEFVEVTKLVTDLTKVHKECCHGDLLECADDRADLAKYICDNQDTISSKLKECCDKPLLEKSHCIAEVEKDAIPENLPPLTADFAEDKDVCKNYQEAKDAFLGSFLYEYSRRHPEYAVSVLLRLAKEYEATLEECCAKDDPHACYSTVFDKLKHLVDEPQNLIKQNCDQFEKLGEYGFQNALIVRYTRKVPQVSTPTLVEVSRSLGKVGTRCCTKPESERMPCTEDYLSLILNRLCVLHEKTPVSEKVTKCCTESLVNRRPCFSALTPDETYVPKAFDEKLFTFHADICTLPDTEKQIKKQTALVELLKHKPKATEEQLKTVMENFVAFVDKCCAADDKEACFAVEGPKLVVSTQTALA

| Structure (SMILES) | effect on viability at 50 μM [1] | IC50 [1] | fold increased fluorescence in 0.1% BSA compared to PBS [2] | increase in absolute fluorescence upon addition of 1% BSA [2] | Kd [3] | IC50 [4] | effect on viability at 50 μM [4] | EC50 [5, 6] | EC50 ([5]; EC50 in 0.1% BSA, 0.1% BSA) | EC50 ([5]; EC50 in 0.5% BSA, 0.5% BSA) | EC50 ([5]; EC50 in 1% BSA, 1% BSA) | fold improvement in potency toward CaSR compared to evocalcet [5] | fold increase in potency toward CaSR compared to the evocalcet-linker conjugate [5] | fold reduction in the EC50 value upon washing with HBSS ([5]; incubated in 1% BSA, washed with HBSS upon 10 min incubation) | concentration below which no effect on viability [1] | effect of preincubating the BSA solution with evocalcet on EvoSiR4 fluorescence ([2]; evocalcet 30–6000 nM, 350 nM EvoSiR4) | effect of preincubation on CaSR-specific increase in relative fluorescence of EvoSiR probes ([3]; 10 μM evocalcet preincubation) | concentration below which no effect on viability [4] | EC50 ([5]; HCAR cells, response to addition of 0.5 mM CaCl2, no BSA, read-out: EC50, positive allosteric modulation of CaSR activity) |
| --- | --- | --- | --- | --- | --- | --- | --- | --- | --- | --- | --- | --- | --- | --- | --- | --- | --- | --- | --- |
| Cc1cc(C(=O)NCCCCNC(=O)Cc2ccc(N3CC[C@H](N[C@H](C)c4cccc5ccccc45)C3)cc2)ccc1C1=C2C=CC(=[N+](C)C)C=C2[Si](C)(C)c2cc(N(C)C)ccc21 [EvoSiR4] | significantly reduced | 27.3 ± 2.3 µM | 4 fold | 400% | 0.0536 ± 0.0184 µM | 36 ± 3.8 µM | significantly reduced | < 0.045 µM and ~0.04 µM and 0.038 µM | 0.064 ± 0.012 µM | 0.102 ± 0.034 µM | 0.106 ± 0.042 µM | 6 fold | 3 fold | 10 fold | – | – | – | – | – |
| Cc1cc(C(=O)NCCCCCCNC(=O)Cc2ccc(N3CC[C@H](N[C@H](C)c4cccc5ccccc45)C3)cc2)ccc1C1=C2C=CC(=[N+](C)C)C=C2[Si](C)(C)c2cc(N(C)C)ccc21 [EvoSiR6] | significantly reduced | 26 ± 2.3 µM | 1.8 fold | 250% | 0.071 ± 0.00956 µM | 36 ± 6 µM | significantly reduced | < 0.045 µM and ~0.04 µM and 0.042 µM | – | – | – | 6 fold | 3 fold | – | – | – | – | – | – |
| C[C@@H](N[C@H]1CCN(c2ccc(CC(=O)O)cc2)C1)c1cccc2ccccc12 [evocalcet] | – | – | – | – | – | – | – | – | – | – | – | – | – | – | < 50 µM | No significant decrease; also recorded: no significant difference | completely abolished | < 50 µM | 0.243 ± 0.015 µM |
